13 compounds from patent publication US20260225970A1, “SOIL C[…] USE THEREOF” (priority 2020, published 2026) can be followed below.

Like-named read-outs stand apart in the source and are kept apart here.

The test system of this assay is Nitrosomonas europaea IF014298. The experiment in a line: Bioluminescence nitrification inhibition assay using a nitrifying bacterium in vitro (luxAB-introduced Nitrosomonas europaea). The format is cell-based. The settings on record: for IC80: IF014298, 0.5 h, read-out: Nitrification inhibitory activity ED80; for nitrification inhibitory activity: result in words, conclusion from the bioluminescence assay (Table 2). The procedure: The nitrification inhibitory action of 2,7-dimethoxy-1,4-naphthoquinone was analyzed using a nitrifying bacterium in vitro (T. Iizumi, M. Mizumoto, K. Nakamura, A Bioluminescence assay using Nitrosomonas europaea for rapid and sensitive detection of nitrification inhibitors (1998) Appl. Environment. Microbiol., 64, 3656-3662).
A nitrifying bacterium (Nitrosomonas europaea IF014298) into which a luciferase gene derived from a bacterium (luxAB) had been introduced was aerobically cultured at 30° C. for 7 to 9 days in a P culture medium containing kanamycin (25 mg/l L). The obtained nitrifying bacterium was washed and then suspended in a fresh P culture medium to prepare a nitrifying bacterial suspension. This nitrifying bacterial suspension was allowed to stand in a dark place for 30 minutes or more before the experiment.
Here, the composition of the P culture medium consisted of 2.5 g of (NH4)2SO4, 0.7 g of KH2PO4, 13.5 g of Na2HPO4, 0.5 g of NaHCO3, 100 mg of MgSO4/7H2O, 5 mg of CaCl2/2H2O, 1 mg of Fe-EDTA, and 1 L of water, and the pH thereof was 8.0.
After mixing in vitro an aqueous solution of the above-described nitrifying bacterial suspension, consisting of 0.25 mL of the above-described nitrifying bacterial suspension and 0.2 mL of water, with 0.01 mL of a sample solution of 2,7-dimethoxy-1,4-naphthoquinone at various concentrations, the amount of bioluminescence associated with the nitrification reaction during culturing at 15° C. for 30 minutes was measured using a luminometer (manufactured by Turner Designs, Inc., model name: TD20/20), whereby the nitrification action was evaluated.
The amount of bioluminescence associated with the nitrification reaction decreases in a case where a substance having a nitrification inhibitory action is present in the sample solution. Therefore, the amount of luminescence in a case where each of the sample solutions of 2,7-dimethoxy-1,4-naphthoquinone at various concentrations was added to the aqueous solution of the nitrifying bacterial suspension was divided by the amount of luminescence in the case of only using the aqueous solution of the bacterial cell suspension without the sample solution being added, thereby obtaining a value as the nitrification inhibition rate. The results of measuring the nitrification inhibitory activity of the present compound at various concentrations are shown in FIG. 5.
In addition, the nitrification inhibitory activity of the 1,4-naphthoquinone derivative was measured in the same manner. In Table 2, R^1 to R^6 are each R^1 to R^6 in Formula (1), respectively.

Setting [1] is: bioluminescence during culturing at 15° C. for 30 minutes, luxAB Nitrosomonas europaea suspension in P culture medium.

For `O=C1C(Cl)=C(Cl)C(=O)c2c(O)ccc(O)c21` [2,3-Dichloro-5,8-dihydroxy-1,4-naphthoquinone], the nitrification inhibitory activity entry is “have a nitrification inhibitory activity”. The IC80 under setting [1] was found to be 0.9 µM.
In the same order, the values of `O=C1C=C(O)C(=O)c2ccccc21` [2-Hydroxy-1,4-naphthoquinone] are “does not have a nitrification inhibitory activity” and greater than 100 µM.
In the same order, the values of `O=C1C(Cl)=C(Cl)C(=O)c2ccccc21` [2,3-Dichloro-1,4-naphthoquinone] are “have a nitrification inhibitory activity” and 2.2 µM.
In the case of `Cc1ccc2c(c1)C(=O)C=CC2=O` [6-Methyl-1,4-naphthoquinone], the nitrification inhibitory activity result is recorded as “have a nitrification inhibitory activity”. Further, the IC80 under setting [1] amounted to 2.2 µM.
As for `O=C1C=CC(=O)c2c(O)cccc21` [5-Hydroxy-1,4-naphthoquinone], the nitrification inhibitory activity result is recorded as “have a nitrification inhibitory activity”. The IC80 under setting [1] was determined as 1.1 µM.
On to `O=C1C=CC(=O)c2c(O)ccc(O)c21` [5,8-Dihydroxy-1,4-naphthoquinone], for which the nitrification inhibitory activity result is “have a nitrification inhibitory activity”. The IC80 (Nitrosomonas europaea) came out at 2.2 µM.
In the case of `COC1=CC(=O)c2ccccc2C1=O` [2-Methoxy-1,4-naphthoquinone], the nitrification inhibitory activity result is reported as “have a nitrification inhibitory activity”. Besides, the IC80 under setting [1] is 8.9 µM.
In the same order, the values of `CC1=CC(=O)c2ccccc2C1=O` [2-Methyl-1,4-naphthoquinone] are “have a nitrification inhibitory activity” and 4.4 µM.
Turning to `COC1=CC(=O)c2ccc(OC)cc2C1=O` [Zeanone, 2,7-dimethoxy-1,4-naphthoquinone], the IC80 under setting [1] amounted to 16.1 µM. The compound also had an ED50 (nitrification inhibition, dose response curve of FIG. 5, second value printed as ED50 in the same sentence, 15° C., 30 minutes) of 16.1 µM. The nitrification inhibitory activity result is recorded as “have a nitrification inhibitory activity” (listed as 2,7-dimethoxy-1,4-naphthoquinone) and “excellent nitrification inhibitory action” (listed as zeanone).
In the case of `O=C1C=C(Cl)C(=O)c2ccccc21` [2-Chloro-1,4-naphthoquinone], the nitrification inhibitory activity result is “have a nitrification inhibitory activity”. For the same compound, the IC80 under setting [1] is 4 µM.
As to `NC1=C(Cl)C(=O)c2ccccc2C1=O` [2-Amino-3-chloro-1,4-naphthoquinone], the nitrification inhibitory activity result is “have a nitrification inhibitory activity”. Besides, the IC80 under setting [1] is 13.3 µM.
In the same order, the values of `O=C1C=CC(=O)c2ccccc21` [1,4-Naphthoquinone] are “have a nitrification inhibitory activity” and 4.4 µM.
For `CC1=CC(=O)c2c(O)cccc2C1=O` [5-Hydroxy-2-methyl-1,4-naphthoquinone], the nitrification inhibitory activity entry is on record as “have a nitrification inhibitory activity”. In addition, the IC80 under setting [1] was determined as 0.5 µM.
